This is an account of results in patent publication US20250009627A1, “THERAPEUTIC AND NON-THERAPEUTIC USES OF A PERSONAL CLEANSING COMPOSITION AND METHODS OF TREATMENT” (The Procter & Gamble Company, priority 2023, published 2025).

The test system of data set [1] is Escherichia coli ATCC25922. As to the kind of experiment: In vitro Minimum Inhibitory Concentration (MIC) testing. The note with it: pH of the assay of 7.2. The data set is classed as cell-based. Here is the method: (§1) The in vitro Minimum Inhibitory Concentration (MIC) Assay is a technique for determining the lowest concentration of a particular compound needed to prevent growth of microorganism. Different microorganisms were used to evaluate bacterial inhibition benefits for sulfate surfactants (Table 1) [table] Microorganisms are cultured and maintained in different culture medium. Each respective microorganism stock solution is diluted to 10^5 to 10^6 CFU/mL in a respective growth medium. 180 μl broth with the respective target microorganism is allocated into 96 well plates. Sodium oleyl sulfate prepared from two different synthesis batches (Ex. 1A and Ex. 1B), sodium octyl sulfate, sodium decyl sulfate, sodium lauryl sulfate were mixed respectively with in Deionized (DI) water. Octadecyl sulfate sodium was mixed in Dimethyl sulfoxide (DMSO). Two folds serial dilution are applied to each respective active by mixing 100 μl active stock solution (from 1 wt. %) plus 100 μl sterilized DI water or DMSO in 96 well plates (Nunc™ MicroWell™ 96-Well, CAT. No. 167008). For each assay, 0.001-1 wt. % treatment solutions are prepared for each individual active. Micropipettes are used to transfer 20 μl of actives at different concentration into each well with 180 μl broth with the respective target microorganisms. The 96 well plates with test microorganisms and test actives are incubated at 37° C. • a) E. coli are incubated for overnight 16 hours to 24 hour. • b) Corynebacterium minutissimum is incubated for two days. • c) Cutibacterium acnes is incubated for two days under anaerobic conditions. After incubation, microorganism growth is determined in presence of test actives by visual inspection or spectrophotometer by OD600 (absorbance at 600 nm using Tecan M200 Infinite Pro Microplate Reader) reading in comparison with positive control (broth with individual microorganism) and negative control (Broth only). MIC values are presented as parts per million (ppm) for different actives.

For data set [2], the system named is Corynebacterium minutissimum ATCC 23348. The data set is described as above. The format is cell-based. Here is the method:
as §1, with “plates. For instance, Corynebacterium minutissimum ATCC 23348 is cultured on tryptic soy agar (TSA) (Oxoid CM0131) over 24 hours. The single colonies are then transferred into 20 mL Tryptone Soy Broth (Oxoid CM0129B—TSB) and cultured overnight at 200 rpm/min, 37° C. Bacterial cell in broth will be diluted to 10^5 to 10^6 CFU/mL in TSB. 180 μL of this bacterium-MHB mix is added to a 96 well flat-bottomed plate (Nunc™ MicroWell™ 96-Well, CAT. No. 167008).” for “plates.”

The next data set relates to Cutibacterium acne SK137. The data set is described as above. The data set is classed as cell-based, Cutibacterium acnes. The note with it: two strains (SK137, 2044 NIA). Here is the method: as §1
The test system of a further data set is E. coli ATCC25922. The data set is described as follows: Kill Rate Test in liquid (suspension time-kill testing). The note with it: pH up to or equal to 4. The data set is classed as cell-based, Escherichia coli. From the text:
The suspension time-kill test is a method to directly inoculate a liquid test substance with a high concentration of test microorganisms and then determine the percentage of killed over time, normally represented as log CFU reduction. The objective is to measure the biocidal potential of a liquid antimicrobial active or formulation.
E. coli ATCC25922 is streaked on Tryptic Soy Agar (TSA) Plates and cultured overnight. Pick up one colony of E. coli ATCC25922 and subculture bacterial cell in Tryptic Soy Broth (TSB) @ 200 rpm/min, 37° C. for 12-16 hours. After culturing, 1 mL bacterial cells in broth are pipetted into 2 mL tubes. Samples are centrifuged for 2 mins at 13000 rpm/min. Cell supernatant are discarded, and bacterial cells are resuspended in 1 mL Saline @ 10^8 to 10^9 CFU/mL. 1 mL liquid antimicrobial active to be tested under different concentrations is prepared: 20 mM acetate buffers are used to maintain the test solutions at a pH between 4.0 and 5.7. 10 mM phosphate buffer is used to maintain the test solution at a pH around 7.2. 20 mM Tris-HCl buffers are used to maintain the test solutions at a pH between 8.0 and 9.0. 1 mL saline (NaCl 0.9 wt. %) is used to as negative control in the study. 50 μl of 10^8 to 10^9 CFU/mL bacterial cells are added into each treatment and saline control. Samples were thoroughly mixed by vertexing 5 seconds. After incubating 30 minutes, 50 μl liquid from each treatment sample and saline control are pipetted out into for Total Viable Count Vial (NEOGEN). All measurements are done in duplicates. The Detection Time (DT) for Total Viable Count Vial is measured by Soleris® Next Generation (NEOGEN) system. DT values are averaged for each treatment and control for further calculation. DT time for each sample is converted to Log (viable cell number) by using algorithm generated for E. coli ATCC25922:
Biocidal potential of different actives at different concentrations and at different pHs in a liquid solution is measured by: […]

The text on data set [3]:
The term “Biodegradable Test” as used herein means the test as described in the Test Method Section herein in which the test material is suspended in a phosphate buffered media containing an activated sludge inoculum and the formation of carbon dioxide measured via a closed-circuit respirometer. The test material is the sole carbon and energy source and under aerobic conditions microorganisms metabolize organic substances producing CO2 as the ultimate product. The biodegradability of the salt of the alkenyl sulfate ester, preferably sodium oleyl sulfate can be tested according to the following method. The Biodegradability Test Method is based on the Organization for Economic Co-operation and Development (OECD) 301B CO2 evolution biodegradation test method that screens chemicals for ready biodegradability in an aerobic aqueous medium. In this test, the test substance is suspended in a phosphate buffered nutrient salts media containing an activated sludge inoculum and the formation of carbon dioxide is measured via a closed-circuit respirometer. […] The test system is dosed with a known quantity of carbon and biodegradation is calculated as the percent of theoretical CO2 formation. […] Ready biodegradability is a regulator definition that is used to classify materials that meet the pass criteria as described in the OECD 301B guideline. […]

Turning to `CCCCCCCC/C=C\CCCCCCCCOS(=O)(=O)[O-].[Na+]` [sodium oleyl sulfate], the “effect against gram-negative E. coli (in words)” value in data set [1] is “ineffective”. In addition, in data set [2], the “bacterial inhibition of Corynebacterium minutissimum (in words)” value is given as “strong bacterial inhibition effects”. The “bacterial inhibition of Cutibacterium acne (in words)” value in the data set with Cutibacterium acne SK137 is given as “strong bacterial inhibition effects”. Besides, in the data set with E. coli ATCC25922, the “bactericidal activity against E. coli in solution (in words)” value was “some bactericidal activity”. In data set [3], the ready biodegradability result is listed as “meeting both requirements for ready biodegradability”.
